Experiment [1] relates to Rhodopirellula baltica RbMPO, wild type, SEQ ID NO: 1. As to conditions: H2O2 range, 267 nM wt RbMPO; for Km: read-out: KMapp (H2O2).
Protocol: Initial rate measurements under steady state conditions were performed with a BioLogic SFM400 stopped-flow by using a single-mixing mode and an Xe/Hg lamp and a TC100/10 cell. […] At least five 120 s shots were monitored for each value of the substrate range with the following sample rates: 20 μs, 20 ms, 20 ms with 2000 points per period. Slopes were calculated from the average of the shorts for each concentration and kss (s^−1) were determined from the slopes using the following formula:
The collected data were analysed with Origin software, then saturation curves for each substrate were fitted either by non-linear regression with or without inhibition by excess of substrate (Eq. 1 and 2) with [S]the substrate of interest, or by linear regression (Eq. 3) with a the slope and b the y-intercept.
The stopped-flow was used to define the steady-state kinetic parameters of RbMPOs. […] From the averages of the curves obtained for each shot, the slopes in Abs.s^−1 were calculated and then converted into kss by the following relation:
The subject of experiment [2] is Rhodopirellula baltica RbMPO variant Q199A (of SEQ ID NO: 1). Particulars: Q199A 1 μM, H2O2 range, 500 mM NaCl, 10 μM APF, 37° C., pH7.5.
Experiment [3] deals with Rhodopirellula baltica RbMPO variant H407A (of SEQ ID NO: 1). As to conditions: read-out: KM H2O2; H407A 1 μM; H2O2 range, 500 mM NaCl, 10 μM APF, 37° C., pH7.5.
For experiment [4], the system named is Rhodopirellula baltica RbMPO variant N317M (of SEQ ID NO: 1). As to conditions: N317M 1 μM, H2O2 range, 500 mM NaCl, 10 μM APF, 37° C., pH7.5. The text has this:
(§1) The chlorination activity of myeloperoxidases can be determined using the aminophenyl fluorescein (APF) probe. One can indeed detect the oxidation of APF (non-fluorescent) by HOCl into fluorescein, a fluorescent molecule that is detectable at λex=485 nm and λem=525 nm. According to such test, the fluorescence measured is proportional to the quantity of fluorescein, which itself is proportional to the quantity of HOCl produced by the myeloperoxidase.
(§2) Measurements of chlorination activity were herein performed in Corning 384-well clear-bottom (flat-bottom) plates with a reaction volume of 20 μL, in triplicate at 37° C., and in a 50 mM NaPi buffer at pH7.5. […] A 10 to 30 minutes kinetic was performed for each range value and the fluorescence intensity was compared to that of the standard fluorescein range. Thus, the measured fluorescence is proportional to the amount of fluorescein, which in turn is proportional to the amount of HOCl produced by the RbMPOs.
(§3) The slopes were measured at the onset of the reaction in order to be in initial velocity. From these values, it was possible to calculate the kss with the following equation: […]

Experiment [5] relates to Rhodopirellula baltica RbMPO variant D202A, E316A (of SEQ ID NO: 1).
Excerpt: as §1, §2, §3

The target of experiment [6] is Rhodopirellula baltica RbMPO, wild type, SEQ ID NO: 1. The experiment is described as follows: Pre-steady-state kinetics: compound I formation and return to native state (stopped-flow, 412 nm). In kind it is biochemical. Particulars: for Ki: H2O2 excess. As to the method: In the first moment after an enzyme is mixed with a substrate, no product has been formed and no intermediates exist. The study of the next few milliseconds of the reaction is called pre-steady-state kinetics.
Kinetic parameters under pre-steady-state condition were performed with a Biologic SFM400 stopped-flow at 412 nm, 37° C. and with 50 mM sodium phosphate buffer at pH7.5. […] An exponential linear fit was applied to each kinetic using the following formula: […]
where p1 corresponds to the exponential magnitude, p2 to the decay time Tau (s) and
The heme Soret band is at 412 nm for the native Fe^III iron form, which is why the decrease in absorbance was followed at this particular wavelength as a function of time. The rate constant was measured using the A412nm curves as a function of time (data not shown). By applying Eq.4 to the exponential part of each kinetic, the values of Tau (s) were determined and the kobs (s^−1) were calculated.
The return of the enzyme to its native state was studied by the impact of increasing concentrations of (pseudo)-halides substrates on compound I (FIG. 9B). […] It is the time difference (s) between the two characteristic steps that allowed the calculation of the values of the Vreturn(μM^−1.s^−1) values: […]

Experiment [7] concerns Rhodopirellula baltica RbMPO, wild type, SEQ ID NO: 1. Particulars: 37° C.; for Km: read-out: KM (catalase, H2O2); for Ki: read-out: Ki (catalase, H2O2). The procedure: Catalase activity was measured using the stopped-flow set-up, which was configured to measure absorbance decay at 240 nm and at 37° C.
Where [8] appears, read: H2O2, wt RbMPO 1.78 μM, 37° C., pH7.5.

Where two headings read alike, the source gives them in different places.

As to `OO` [H2O2, hydrogen peroxide], the “kcatapp (H2O2)” value in experiment [1] (Br 100 mM) amounted to 113.72 ± 72.11 s⁻¹; in experiment [1] (SCN 5 mM) it was 203.24 ± 45.46 s⁻¹. The Km in experiment [1] (Br 100 mM) amounted to 230 ± 210 µM; in experiment [1] (SCN 5 mM) it was 120 ± 40 µM; in experiment [2] (read-out: KM H2O2), 490 ± 150 µM; in experiment [3] it was 270 ± 90 µM; in experiment [4] (read-out: KM H2O2), 320 ± 90 µM; in experiment [5] (read-out: KM H2O2, E316A 1 μM, H2O2 range, 500 mM NaCl, 10 μM APF, 37° C., pH7.5) it was 220 ± 60 µM. Further, the Km was found to be 40 ± 40 µM in experiment [7] (pH 7, 2 μM wt RbMPO) and 170 ± 110 µM in experiment [7] (pH 7.5, 2 μM wt RbMPO). The Ki in experiment [2] (read-out: Ki H2O2) turned out to be 18.3 ± 5.34 mM; in experiment [4] (read-out: Ki H2O2) it was 48.1 ± 15.4 mM; in experiment [5] (read-out: Ki H2O2, E316A 1 μM, H2O2 range, 500 mM NaCl, 10 μM APF, 37° C., pH7.5), 96.3 ± 31.9 mM; in experiment [6] (read-out: Ki (compound I formation, text)), 10.9 mM; in experiment [6] (wt RbMPO 1.78 μM, 37° C., pH7.5, read-out: Ki (compound I formation)) it was 10.9 ± 3 mM; in experiment [7] (pH 7, 2 μM wt RbMPO), 0.54 ± 0.57 mM. The Ki in experiment [7] (pH 7.5, 2 μM wt RbMPO) was 1.07 ± 0.7 mM. In experiment [6] (setting [8]), this compound registered a dissociation constant Kd of 0.0569 ± 0.0201 mM. Further, the “kobsmax (compound I formation)” value in experiment [6] (setting [8]) came to 57.09 ± 8.60 s⁻¹. For the same compound, the “kcat (catalase, H2O2)” value came to 1.62 ± 0.86 s⁻¹ in experiment [7] (pH 7, 2 μM wt RbMPO) and 56.64 ± 20.62 s⁻¹ in experiment [7] (pH 7.5, 2 μM wt RbMPO).

For the origin of these results see US20250297232A1, “BACTERIAL MYELOPEROXIDASE-CATALASE AND APPLICATIONS THEREOF” (UNIVERSITÉ DE BORDEAUX, priority 2022, published 2025).
